# Reference: patent US20240148645A1, “NON-NANOPARTICULATE APPLICATION FORMS OF MACROLIDES” (Nucleus Medical GmbH, priority 2021, published 2024)
# Assays:
# [1] = Saturation solubility of tacrolimus in different solvents; type: physicochemical; conditions: for solubility: thermodynamic from solid, room temperature
# Protocol: Tacrolimus was dissolved in an organic solvent. Particularly, the saturation solubility of tacrolimus in different organic solvents was tested. Crystalline active ingredient was added to a defined amount of solvent at room temperature while stirring until an insoluble sediment was formed. After filtration, the concentration of active ingredient was quantified by HPLC in the supernatant.
# [2] = low solubility and high permeability; cited from earlier work
compound,measurement,setting,value
C=CC[C@@H]1/C=C(\C)C[C@H](C)C[C@H](OC)[C@H]2O[C@@](O)(C(=O)C(=O)N3CCCC[C@H]3C(=O)O[C@H](/C(C)=C/[C@@H]3CC[C@@H](O)[C@H](OC)C3)[C@H](C)[C@@H](O)CC1=O)[C@H](C)C[C@@H]2OC [Tacrolimus],Solubility in tested organic solvents,[1],soluble in all tested organic solvents
same,solubility,"[1]; organic solvent or mixture, Acetic Acid",545 mg/mL
same,solubility,"[1]; organic solvent or mixture, DMSO",582 mg/mL
same,solubility,"[1]; organic solvent or mixture, Ethanol",389 mg/mL
same,solubility,"[1]; organic solvent or mixture, iso-Propanol",243 mg/mL
same,solubility,[1]; Water,0.00076 mg/mL
same,BCS class,[2],BCS class II
